# From patent US20040142899A1, “Compositions and methods for enhanced biostability and altered biodistribution of oligonucleotides in mammals” (ISIS Pharmaceuticals, Inc., priority 1990, published 2004)
# How the values were obtained:
# [1] = Nuclease stability in HeLa cytoplasmic/nuclear extracts; type: in vitro ADME; settings: cell extract diluted 1.4 times; oligonucleotide 20 μM
# Method: The nuclease stability of Oligomer 51 and the conjugate were tested against Oligomer 50 in HeLa cytoplasmic/nuclear extracts. The cell extract was diluted 1.4 times. The final concentration of oligonucleotide was 20 μM. The half lives of the oligonucleotides were as follows: Oligomer 50, 1.0 hrs.; Oligomer 51, 3.5 hrs.; and Conjugate 1, 3.6 hrs.
# mouse ICAM-1 mRNA = assay: ICAM-1 mRNA levels in LPS-treated mice (Northern analysis); type: in vivo; settings: liver; 30 mg/kg i.v. 24 and 2 hours prior to LPS
# Method: Mice were treated with oligonucleotides and examined as follows. […] Then, to induce ICAM-1 expression, bacterial lipopolysaccharide (LPS) was injected into the mice. After 2 hours, the mice were sacrificed, and particular organs, or specific portion thereof, were removed for further study. RNA was prepared from isolated, homogenized tissues essentially according to the guanidinium/CsCl purification method of Chirgwin et al. (Biochemistry, […], 18, 5294), electrophoresed and transferred to nylon membranes for hybridization studies (Northern analysis) according to methods well known in the art. In order to detect mouse ICAM-1 mRNA, a radiolabelled probe was prepared by random oligonucleotide-primed synthesis using a mouse ICAM-1 clone as a template. The blots were stripped and reprobed with a ^32P-labeled glyceraldehyde 3-phosphate dehydrogenase (G3PDH) probe (Clontech Laboratories, Inc., Palo Alto, Calif.) in order to confirm equal loading of RNA and to allow the levels of ICAM-1 transcripts to be normalized with regard to the G3PDH signals. Hybridizing bands were visualized by exposure to X-OMAT AR film and quantitated using a PHOSPHORIMAGER™ essentially according to the manufacturer's instructions (Molecular Dynamics, Sunnyvale, Calif.).
# ICAM-1 protein = settings: LPS-induced livers, HRP-conjugated secondary antibodies
# complementary DNA = assay: Melting analysis (Tm) of 5-LO antisense sequence oligomers against complementary DNA; type: binding; settings: 4 μM each strand, 100 mM NaCl, 10 mM Phosphate, 0.1 mM EDTA, pH 7.0
# Method: (§1) The relative ability of oligonucleotides to bind to their complementary strand is compared by determining the melting temperature of the hybridization complex of the oligonucleotide and its complementary strand. The melting temperature (Tm), a characteristic physical property of double helices, denotes the temperature in degrees centigrade at which 50% helical versus coil (un-hybridized) forms are present. Tm is measured by using the UV spectrum to determine the formation and breakdown (melting) of hybridization. Base stacking, which occurs during hybridization, is accompanied by a reduction in UV absorption (hypochromicity). Consequently, […]. The higher the Tm, the greater the strength of the binding of the strands. Non-Watson-Crick base pairing has a strong destabilizing effect on the Tm. Consequently, absolute fidelity of base pairing is necessary to have optimal binding of an antisense oligonucleotide to its targeted RNA.
# (§2) The test oligonucleotides (either the phosphodiester, phosphorothioate, cholic acid conjugated phosphodiester, cholic acid conjugated phosphorothioate or 5′-aminolink intermediate phosphodiester or phosphorothioate oligonucleotides of the invention or otherwise) and either the complementary DNA or RNA oligonucleotides were incubated at a standard concentration of 4 μM for each oligonucleotide in buffer (100 mM NaCl, 10 mM Na-phosphate, pH 7.0, 0.1 mM EDTA). Samples were heated to 90 degrees C. and the initial absorbance taken using a Guilford Response II spectro-photometer (Corning, Inc., Corning, N.Y.). Samples were then slowly cooled to 15° C. and then the change in absorbance at 260 nm was monitored during the heat denaturation procedure. The temperature was elevated 1 degree/absorbance reading and the denaturation profile analyzed by taking the 1st derivative of the melting curve. Data was also analyzed using a two-state linear regression analysis to determine the Tm's. The results of these tests are shown in Table 3 as are the HPLC retention times of certain of the test compounds.
# complementary RNA = assay: Melting analysis (Tm) of 5-LO antisense sequence oligomers against complementary RNA; type: binding; settings: 4 μM each strand, 100 mM NaCl, 10 mM Phosphate, 0.1 mM EDTA, pH 7.0
# Method: as §1, §2
# P-glycoprotein = P-glycoprotein expression by Western blotting in MDR 3T3 cells; type: cell-based, human; settings: maximum only after 72 hours exposure
# Method: Transfected MDR NIH 3T3 cells were grown and treated with oligonucleotides as described in Example (9)(B). In order to measure P-glycoprotein expression by Western blotting, cells were seeded in 60 mm dishes at 1.2×10^6 per dish and incubated for 24 hours in serum containing medium. The cells were treated with the oligomers for various times in serum free medium as described above. Cells were then extracted in lysis buffer (20 mM Tris, pH 7.5, 2 mM EDTA, 500 mM EGTA, 2 mM PMSF, 1 mM DTT, aprotonin (10 ug/ml), 0.5% Triton-X) and sonicated briefly. The lysate was spun in a microfuge tube for 20 minutes at 4° C. and the resulting supernatant was checked for protein content. Equal amounts of protein (usually 20 ug) were mixed with SDS sample buffer and boiled. Protein samples were separated by 8% SDS PAGE and the resolved proteins were electrophoretically transferred onto polyvinyllidene fluoride membranes (Millipore, Bedford, Mass.). The membranes were blocked (with 3% BSA, 2% non fat dry milk in PBS) and then treated with 2 ug/ml C219 anti-P-glycoprotein antibody (Signet, Dedham, Mass.). After washing three times with 0.1% Tween 20, the membranes were incubated with rabbit anti-mouse antibody (Cappel, Durham, N.C.). Immunoreactive proteins were visualized either by ECL (Enhanced Chemiluminescence, Amersham, Arlington Heights, Ill.) or with ^125I secondary antibodies.
# MDR1 mRNA = MDR1 mRNA expression by Northern blotting in MDR 3T3 cells; type: cell-based, human; settings: for MDR1 mRNA Level (arbitrary units) / % Control (MDR1 mRNA): oligonucleotide 1 μm, 24 hours, with Lipofectin; for MDR1 mRNA Level (arbitrary units): serum free medium; for % Control (MDR1 mRNA): control = untreated cells
# Method: NIH 3T3 cells transfected with a plasmid containing the human MDR1 gene (pSK1 MDR) have been previously described (Kane et al., Gene, 1989, 84, 439). These cells have proven to be useful models for the study of multi-drug resistance phenomena. Cells were grown in DMEM media containing 10% fetal bovine serum (FBS) and 60 ng/ml colchicine in an atmosphere of 95% air, 5% CO2.
# Cells were grown in […] flasks.
# To measure MDR1 mRNA expression by Northern blotting, total cellular RNA was isolated by lysis in 4M guanidium isothiocyanate followed by a cesium chloride gradient, and the RNA was resolved on 1.2% agarose gels containing 1.2% formaldehyde and transferred to nitrocellulose membranes (Dean et al., J. Biol. Chem., 1994, 269, 16416). The blots were hybridized with a ^32P radiolabeled human MDR1 cDNA probe. The MDR1 cDNA probe was isolated by performing a polymerase chain reaction on the pSK1 MDR plasmid, as described previously (Alahari et al., Nucl. Acids Res., 1993, 21, 4079). The following oligonucleotide primers were used for PCR: […]
# The resulting fragment was checked on an agarose gel and was radiolabeled with ^32P-dCTP using a commercially available random primer labeling kit (Amersham, Arlington Heights, Ill.) according to the manufacturer's instructions. The filters were hybridized overnight in hybridization buffer (25 mM KPO4, pH 7.4; 5×SSC; 5×Denhardt's solution, 100 ug/ml Salmon sperm DNA and 50% formamide) (Alahari et al., Nucl. Acids Res., 1993, 21, 4079). This was followed by two washes with 1×SSC, 0.1% SDS and two washes with 0.25×SSC, 0.1% SDS. Hybridizing bands were visualized by exposure to X-OMAT AR film and quantitated using a PhosphorImager™ (Molecular Dynamics, Sunnyvale, Calif.). To confirm equal loading of RNA, the blots were stripped and reprobed with a ^32P-labeled beta-actin probe (Clontech, Palo Alto, Calif).
# In initial experiments, the MDR 3T3 cells were exposed to 1.0 μm concentrations of several different antisense oligonucleotides, or control oligonucleotides, in the presence of 20 ug/ml LIPOFECTIN® for 24 hours. […] NIH 3T3 cells transfected with pSK1 MDR plasmid were grown to 90% confluence and treated with oligonucleotide (1 μm) for 24 hours in the presence of Lipofectin® in serum free medium. Total RNA was isolated and fractionated on agarose formaldehyde gels and blotted onto nitrocellulose membranes. These membranes were probed with a ^32P radiolabeled 1.0 kb MDR1 cDNA, and then stripped and reprobed with a ^32P radiolabeled beta-actin cDNA probe to confirm equal loading of RNA, allowing the levels of MDR1 transcripts to be normalized with regard to the beta-actin bands. Transcript levels were quantitated using a PHOSPHORIMAGER™ (Molecular Dynamics, Sunnyvale, Calif.); the values are expressed in arbitrary units (the beta-actin transcripts were essentially constant).
substance,measurement,setting,value
"5′-GCC-TTT-CGC-GAC-CCA-ACA-CU [Oligomer 50, reference compound]",half life,[1],1.0 h
5′-GCC-TTT-CGC-GAC-CCA-ACA-CU* [Oligomer 51],half life,[1],3.5 h
"5′-GCG-TTG-CTC-TTC-TTC-TTG-CG [ISIS 13293, reference compound]",reduction of hepatic ICAM-1 mRNA relative to LPS without oligonucleotide,mouse ICAM-1 mRNA,no apparent effect
same,ICAM-1 staining of liver sections,ICAM-1 protein,appear quite dark
"5′-TCC-AGG-TGT-CCG-CAT-C-3′ (antisense TCCAGGTGTCCGCATC; 5' cholic acid conjugate, chemistry not fully specified) [Oligomer 36, 5′-terminus cholic acid conjugate, phosphodiester]",Tm DNA,complementary DNA,63.4 degrees centigrade
same,Tm RNA,complementary RNA,62.4 degrees centigrade
"5′-TCC-AGG-TGT-CCG-CAT-C-3′ (antisense TCCAGGTGTCCGCATC; phosphodiester, phosphorothioate or 5'-aminolink variants, which one is not given here, further chemistry not given here) [Oligomer 32, parent 5-LO antisense compound, normal phosphodiester linkages, reference compound]",Tm DNA,complementary DNA; listed as 32,62.6 degrees centigrade
same,Tm RNA,complementary RNA; listed as 32,62.0 degrees centigrade
"5′-TCC-AGG-TGT-CCG-CAT-C-3′ (antisense TCCAGGTGTCCGCATC; phosphodiester, phosphorothioate or 5'-aminolink variants, which one is not given here, further chemistry not given here) [Oligomer 33, reference compound]",Tm DNA,complementary DNA; listed as 33,55.4 degrees centigrade
same,Tm RNA,complementary RNA; listed as 33,54.9 degrees centigrade
"5′-TCC-AGG-TGT-CCG-CAT-C-3′ (antisense TCCAGGTGTCCGCATC; phosphodiester, phosphorothioate or 5'-aminolink variants, which one is not given here, further chemistry not given here) [Oligomer 37]",Tm DNA,complementary DNA; listed as 37,56.3 degrees centigrade
same,Tm RNA,complementary RNA; listed as 37,55.8 degrees centigrade
"CGG-TCC-CCT-TCA-AGA-TCC-AT (CGGTCCCCTTCAAGATCCAT; all phosphorothioate, sugars by position and methylation of C not given here) [ISIS 10440]",reduction of P-glycoprotein (Western assays),P-glycoprotein,about 50%
"CTC-CCG-CAC-ATC-TCC-GCG-CC (CTCCCGCACATCTCCGCGCC; all phosphorothioate, sugars by position and methylation of C not given here) [ISIS 10222, reference compound]",MDR1 mRNA Level (arbitrary units),MDR1 mRNA,"406,522 arbitrary units"
same,% Control (MDR1 mRNA),MDR1 mRNA,86%
"GAG-CCG-CTA-CTC-GAA-TGA-GC (GAGCCGCTACTCGAATGAGC; all phosphorothioate, sugars by position and methylation of C not given here) [ISIS 5990]",MDR1 mRNA Level (arbitrary units),MDR1 mRNA,"443,478 arbitrary units"
same,% Control (MDR1 mRNA),MDR1 mRNA,94%
"GTT-CAC-TGG-CGC-TTT-GTT-CC (GTTCACTGGCGCTTTGTTCC; all phosphorothioate, sugars by position and methylation of C not given here) [ISIS 5998]",effect on MDR1 mRNA expression,"MDR1 mRNA; parent phosphorothioate, Example 9(B)",unpromising effect on MDR1 mRNA expression
